Seven molecules from US8871753B2, “Macrocyclic compounds and their use as kinase inhibitors” (Incyte Corporation, priority 2008, dated 2014) can be followed below.

Usually IC50 stands for the midpoint of a concentration-inhibition curve.

Each structure is given as a SMILES string. Structures can show the parent of a compound that is named as a salt. Where two headings read alike, the source gives them in different places. Bounds are passed on as bounds.

Holding throughout (assay type): biochemical
The target in test [1] is T1, human JAK3 (a.a. 781-1124) (Homo sapiens, UniProt P52333).
T1 construct: JAK3 (a.a. 781-1124); His tag (N); made in house; host or cells: insect cells (baculovirus)
Nature of the test: In vitro JAK kinase assay (HTRF, phosphorylation of a biotinylated peptide), JAK3. The method, boiled down:
(§1)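 Kinase reactions ran at room temperature for 1 h with ATP matched per isoform (JAK1 90 μM, JAK2 30 μM, JAK3 3 μM). After an EDTA stop, the phosphorylated biotin-peptide was read by HTRF using Eu-Py20 and SA-APC after 40 min binding.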
(In general: In TR-FRET formats the signal depends on donor and acceptor labels being close together.)

Test [2] addresses T2, human JAK1 (a.a. 837-1142) (Homo sapiens, UniProt P23458).
T2 construct: human JAK1 (a.a. 837-1142); His tag (N); made in house; host or cells: insect cells (baculovirus)
Nature of the test: In vitro JAK kinase assay (HTRF, phosphorylation of a biotinylated peptide), JAK1. The following applies: read-out: JAK1 IC50. The method, boiled down: as §1

The next test deals with TYK2 (Homo sapiens, UniProt P29597). Nature of the test: TYK2 kinase inhibition (Table A1).
Test [3] concerns the target T3, human JAK2 (a.a. 828-1132) (Homo sapiens, UniProt O60674).
T3 construct: JAK2 (a.a. 828-1132); His tag (N); made in house; host or cells: insect cells (baculovirus)
Put plainly: In vitro JAK kinase assay (HTRF, phosphorylation of a biotinylated peptide), JAK2. The method, boiled down: as §1

Test [4] deals with T4, Recombinant Human Anaplastic Lymphoma Kinase (Homo sapiens, UniProt Q9UM73).
T4 construct: purchased Invitrogen, Carlsbad, Calif
Nature of the test: ALK HTRF kinase assay. The following applies: for IC50: Table B1, cells without percent sign. The method in brief:
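Kinase activity of the recombinant human protein is measured on a biotinylated peptide, with a Eu-W1024 anti-phosphotyrosine antibody and streptavidin-allophycocyanin generating the homogeneous time-resolved fluorescence signal. Inhibition curves are fitted to yield IC50.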

Setting [5] is: method AA1 (3 μM ATP) or AA2 (1000 μM ATP), not stated per value.
Where [6] appears, read: method AA1 (90 μM ATP) or AA2 (1000 μM ATP), not stated per value.
Where [7] appears, read: method AA1 (30 μM ATP) or AA2 (1000 μM ATP), not stated per value.
Where [8] appears, read: compound at 500 nM or 1 mM, 90 μM ATP.
The mark [9] stands for this setting: compound at a concentration of 500 nM or 1 mM (not specified), cells shown as percentage.

T2 sequence (P23458 849-1154): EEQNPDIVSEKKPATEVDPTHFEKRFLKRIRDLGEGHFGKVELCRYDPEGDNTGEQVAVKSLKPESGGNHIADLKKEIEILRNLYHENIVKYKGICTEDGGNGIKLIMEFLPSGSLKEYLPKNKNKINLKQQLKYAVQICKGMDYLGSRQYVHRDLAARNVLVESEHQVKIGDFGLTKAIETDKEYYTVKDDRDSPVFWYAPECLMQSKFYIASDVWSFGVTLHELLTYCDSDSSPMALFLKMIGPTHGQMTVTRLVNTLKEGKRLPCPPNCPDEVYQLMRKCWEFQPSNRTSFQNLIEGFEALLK
T3 sequence (O60674 828-1132): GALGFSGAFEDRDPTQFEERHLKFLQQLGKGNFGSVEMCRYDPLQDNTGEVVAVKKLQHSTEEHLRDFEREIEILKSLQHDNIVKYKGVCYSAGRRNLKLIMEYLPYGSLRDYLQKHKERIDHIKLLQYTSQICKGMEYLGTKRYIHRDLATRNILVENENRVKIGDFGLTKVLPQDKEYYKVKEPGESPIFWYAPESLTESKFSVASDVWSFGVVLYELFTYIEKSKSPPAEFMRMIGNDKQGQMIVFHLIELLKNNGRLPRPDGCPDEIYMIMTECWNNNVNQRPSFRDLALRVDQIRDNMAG
Sequence of TYK2 (P29597 whole entry): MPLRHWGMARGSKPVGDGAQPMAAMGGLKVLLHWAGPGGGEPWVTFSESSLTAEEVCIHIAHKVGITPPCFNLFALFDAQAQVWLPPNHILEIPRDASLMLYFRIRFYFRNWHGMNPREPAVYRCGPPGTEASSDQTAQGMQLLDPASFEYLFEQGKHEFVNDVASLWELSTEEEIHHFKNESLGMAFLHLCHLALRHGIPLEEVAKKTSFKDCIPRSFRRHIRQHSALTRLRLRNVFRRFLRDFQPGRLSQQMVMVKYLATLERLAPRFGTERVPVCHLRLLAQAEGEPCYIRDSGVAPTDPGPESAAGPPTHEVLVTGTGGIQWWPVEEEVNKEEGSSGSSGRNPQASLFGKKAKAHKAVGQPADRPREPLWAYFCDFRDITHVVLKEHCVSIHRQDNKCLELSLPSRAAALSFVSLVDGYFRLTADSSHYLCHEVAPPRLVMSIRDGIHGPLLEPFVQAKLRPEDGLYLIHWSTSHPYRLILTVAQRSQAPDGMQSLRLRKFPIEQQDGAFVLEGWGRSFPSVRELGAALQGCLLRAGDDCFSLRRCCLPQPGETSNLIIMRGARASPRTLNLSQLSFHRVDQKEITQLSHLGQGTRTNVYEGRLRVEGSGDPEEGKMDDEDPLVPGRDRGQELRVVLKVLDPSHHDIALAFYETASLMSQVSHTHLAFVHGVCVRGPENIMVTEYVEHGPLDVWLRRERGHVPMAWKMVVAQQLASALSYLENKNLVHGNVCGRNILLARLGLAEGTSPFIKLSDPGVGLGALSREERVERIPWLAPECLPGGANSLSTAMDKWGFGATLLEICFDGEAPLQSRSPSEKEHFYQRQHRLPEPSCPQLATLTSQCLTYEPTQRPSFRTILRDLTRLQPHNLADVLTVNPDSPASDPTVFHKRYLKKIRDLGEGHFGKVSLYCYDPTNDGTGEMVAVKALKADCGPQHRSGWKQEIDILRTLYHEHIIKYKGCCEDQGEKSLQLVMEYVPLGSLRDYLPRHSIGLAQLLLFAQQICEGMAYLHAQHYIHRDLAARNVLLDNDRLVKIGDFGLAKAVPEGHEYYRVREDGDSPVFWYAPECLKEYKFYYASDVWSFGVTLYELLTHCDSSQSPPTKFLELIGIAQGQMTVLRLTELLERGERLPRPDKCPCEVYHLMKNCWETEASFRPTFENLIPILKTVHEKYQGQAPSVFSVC
T4 sequence (Q9UM73 19-1620): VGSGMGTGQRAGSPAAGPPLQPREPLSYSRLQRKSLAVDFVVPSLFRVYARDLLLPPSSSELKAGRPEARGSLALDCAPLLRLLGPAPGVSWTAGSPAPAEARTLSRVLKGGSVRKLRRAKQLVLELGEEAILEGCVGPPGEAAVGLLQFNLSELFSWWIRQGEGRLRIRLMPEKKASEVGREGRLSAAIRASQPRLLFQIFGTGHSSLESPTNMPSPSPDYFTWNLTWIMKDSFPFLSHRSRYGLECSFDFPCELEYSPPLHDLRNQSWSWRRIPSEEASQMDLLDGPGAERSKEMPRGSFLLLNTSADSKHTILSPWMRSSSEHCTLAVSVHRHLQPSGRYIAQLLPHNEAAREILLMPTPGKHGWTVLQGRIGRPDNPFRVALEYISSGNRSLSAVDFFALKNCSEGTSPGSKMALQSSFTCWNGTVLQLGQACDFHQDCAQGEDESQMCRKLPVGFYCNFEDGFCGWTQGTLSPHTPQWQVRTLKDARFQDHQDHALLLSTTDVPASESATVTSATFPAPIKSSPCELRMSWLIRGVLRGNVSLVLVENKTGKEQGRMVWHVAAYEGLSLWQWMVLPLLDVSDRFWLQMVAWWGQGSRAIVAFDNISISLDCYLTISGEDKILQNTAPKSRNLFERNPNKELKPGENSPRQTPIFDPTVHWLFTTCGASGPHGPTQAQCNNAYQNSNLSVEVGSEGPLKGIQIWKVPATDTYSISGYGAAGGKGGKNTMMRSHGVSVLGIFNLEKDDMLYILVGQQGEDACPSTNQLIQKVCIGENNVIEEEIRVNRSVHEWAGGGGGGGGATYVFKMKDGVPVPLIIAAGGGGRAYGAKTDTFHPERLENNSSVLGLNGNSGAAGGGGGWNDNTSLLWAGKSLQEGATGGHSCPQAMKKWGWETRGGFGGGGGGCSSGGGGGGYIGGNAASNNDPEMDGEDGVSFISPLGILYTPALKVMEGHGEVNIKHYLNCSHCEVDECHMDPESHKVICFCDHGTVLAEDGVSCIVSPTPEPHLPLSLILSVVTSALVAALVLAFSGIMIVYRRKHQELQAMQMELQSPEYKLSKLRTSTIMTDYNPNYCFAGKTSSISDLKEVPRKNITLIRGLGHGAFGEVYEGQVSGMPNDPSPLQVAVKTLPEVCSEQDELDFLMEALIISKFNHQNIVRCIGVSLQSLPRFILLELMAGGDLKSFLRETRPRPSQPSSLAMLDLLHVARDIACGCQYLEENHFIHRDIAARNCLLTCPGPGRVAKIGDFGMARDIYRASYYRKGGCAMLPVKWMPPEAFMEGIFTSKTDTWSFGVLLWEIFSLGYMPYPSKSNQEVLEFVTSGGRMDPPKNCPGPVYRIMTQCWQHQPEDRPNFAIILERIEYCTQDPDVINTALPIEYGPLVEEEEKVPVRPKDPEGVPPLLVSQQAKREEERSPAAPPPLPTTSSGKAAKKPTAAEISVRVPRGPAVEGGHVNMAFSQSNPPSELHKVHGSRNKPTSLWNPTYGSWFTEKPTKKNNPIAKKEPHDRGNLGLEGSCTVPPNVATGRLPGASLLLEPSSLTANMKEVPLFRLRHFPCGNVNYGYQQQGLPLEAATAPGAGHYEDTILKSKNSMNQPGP
T1 sequence (P52333 781-1124): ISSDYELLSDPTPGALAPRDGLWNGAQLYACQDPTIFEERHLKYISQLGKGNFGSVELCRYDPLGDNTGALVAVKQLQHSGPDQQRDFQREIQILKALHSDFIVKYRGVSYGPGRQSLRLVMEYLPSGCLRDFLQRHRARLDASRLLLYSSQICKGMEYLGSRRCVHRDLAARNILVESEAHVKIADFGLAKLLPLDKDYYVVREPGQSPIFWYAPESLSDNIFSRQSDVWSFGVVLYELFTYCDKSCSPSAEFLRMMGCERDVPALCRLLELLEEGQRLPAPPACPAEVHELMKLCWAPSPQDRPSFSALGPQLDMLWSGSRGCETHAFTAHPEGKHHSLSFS

For `Cc1ccccc1NC(=O)N1CCC(CC(=O)Nc2ccc3cc2CCc2cncc(c2)Nc2ncc(Cl)c(n2)N3)CC1` [Example A149, 4-(2-{[6-Chloro-2,4,8,18,22-pentaazatetracyclo[14.3.1.1(3,7).1(9,13)]docosa-1(20),3(22),4,6,9(21),10,12,16,18-nonaen-12-yl]amino}-2-oxoethyl)-N-(2-methylphenyl)piperidine-1-carboxamide bis(trifluoroacetate)], the IC50 is greater than 100 nM in test [1] (setting [5]), 0.5 nM in test [2] (setting [6]), 6.9 nM on TYK2 and 3.1 nM in test [3] (setting [7]). Besides, the “ALK % of inhibition at a concentration of 500 nM or 1 mM” value (shortened to “ALK % of inhibition”) in test [4] (setting [8]) is listed as 35%.
In the case of `O=C(Nc1ccc2cc1CCc1cccc(c1)Nc1ncc(Cl)c(n1)N2)C1CC1` [Example B27, N-[6-Chloro-2,4,8,22-tetraazatetracyclo[14.3.1.1(3,7).1(9,13)]docosa-1(20), 3(22),4,6,9(21),10,12,16,18-nonaen-12-yl]cyclopropanecarboxamide trifluoroacetate], the IC50 stood at 8.5 nM in test [1] (Table B1); 5.2 nM in test [2] (Table B1); 15 nM at TYK2 (Table B1); 3.7 nM in test [3] (Table B1); 880 nM in test [4].
Regarding `O=C(CC1CCN(C(=O)c2ccc(F)cc2)CC1)Nc1ccc2cc1CCc1cncc(c1)Nc1ncc(Cl)c(n1)N2` [Example A193, N-[6-Chloro-2,4,8,18,22-pentaazatetracyclo[14.3.1.1(3,7).1(9,13)]docosa-1(20),3(22),4,6,9(21),10,12,16,18-nonaen-12-yl]-2-[1-(4-fluorobenzoyl)piperidin-4-yl]acetamide bis(trifluoroacetate)], the IC50 is greater than 200 nM in test [1] (setting [5]), 12 nM in test [2] (setting [6]), greater than 200 nM at TYK2 and greater than 200 nM in test [3] (setting [7]). For the same molecule, the “ALK % of inhibition” value in test [4] (setting [8]) stood at 31%.
Take `O=C(Nc1ccc2cc1CCc1cccc(c1)Nc1ncc(Cl)c(n1)N2)NC1CCCCC1` [Example B119, N-[6-Chloro-2,4,8,22-tetraazatetracyclo[14.3.1.1(3,7).1(9,13)]docosa-1(20), 3(22),4,6,9(21),10,12,16,18-nonaen-12-yl]-N′-cyclohexylurea trifluoroacetate]: the IC50 was 48 nM in test [1] (Table B1), 2.9 nM in test [2] (Table B1), 9.8 nM on TYK2 (Table B1) and 3.3 nM in test [3] (Table B1). Moreover, the “ALK % of inhibition” value in test [4] (setting [9]) was determined as 19%.
With `CC(C)C(=O)Nc1ccc2cc1CCc1cccc(c1)Nc1ncc(Cl)c(n1)N2` [Example B55, N-[6-Chloro-2,4,8,22-tetraazatetracyclo[14.3.1.1(3,7).1(9,13)]docosa-1(20), 3(22),4,6,9(21),10,12,16,18-nonaen-12-yl]-2-methylpropanamide trifluoroacetate], the IC50 came to 1.1 nM in test [1] (Table B1); 12 nM in test [2] (Table B1); 23 nM against TYK2 (Table B1); 2.7 nM in test [3] (Table B1); 930 nM in test [4].
Consider `O=C(Nc1ccc2cc1CCc1cccc(c1)Nc1ncc(Cl)c(n1)N2)N[C@@H]1CCN(C(=O)c2ccccc2)C1` [Example B176, N-[(3R)-1-Benzoylpyrrolidin-3-yl]-N′-[6-chloro-2,4,8,22-tetraazatetracyclo[14.3.1.1(3,7).1(9,13)]docosa-1(20),3(22),4,6,9(21),10,12,16,18-nonaen-12-yl]urea trifluoroacetate], for which the IC50 in test [1] (Table B1) is 60 nM; in test [2] (Table B1), 5.7 nM; on TYK2 (Table B1), 25 nM; in test [3] (Table B1), 7.8 nM. Besides, the “ALK % of inhibition” value in test [4] (setting [9]) is listed as 19%.
For `CC(C)(C)OC(=O)N1CCC(CC(=O)Nc2ccc3cc2CCc2cncc(c2)Nc2ncc(Cl)c(n2)N3)CC1` [Example A70, tert-Butyl 4-(2-{[6-chloro-2,4,8,18,22-pentaazatetracyclo[14.3.1.1(3,7).1(9,13)]docosa-1(20),3(22),4,6,9(21),10,12,16,18-nonaen-12-yl]amino}-2-oxoethyl)piperidine-1-carboxylate bis(trifluoroacetate)], the IC50 turned out to be 195 nM in test [1] (setting [5]), 20 nM in test [2] (setting [6]), 110 nM at TYK2 and 57 nM in test [3] (setting [7]). The “ALK % of inhibition” value in test [4] (setting [8]) amounted to 18%.
